For the assay, the target named is human TrkA receptor (Homo sapiens (Human), UniProt P04629). Description: TrkA functional activity, DiscoverX PathHunter assay (NGF-stimulated U2OS cells). Type of assay: cell-based. The conditions noted are these: U2OS cells expressing human TrkA-Prolink, Shc1-EA and p75NTR; compound 1 h, then NGF (~80% of maximal response) 3 h; luminescence. The protocol:
TrkA functional activity was measured using a DiscoverX PathHunter assay. In this assay, U2OS cells express the human TrkA receptor as a fusion with the weakly complementing fragment of B-galactosidase, which DiscoverX calls “Prolink (PK)”; additionally, Shc1 is fused with a larger fragment, which is called “Enzyme Acceptor (EA)”. Activation of the TrkA receptor, upon NGF addition, results in the kinase domain being phosphorylated, resulting in subsequent recruitment of Shc1-EA protein. That recruitment results in an active B-galactosidase enzyme that is detected by addition of a chemiluminescent substrate. The human p75^NTR protein was also expressed as a co-receptor for NGF.
All reagents were purchased from DiscoverX, except for the receptor agonists (NGF, BDNF, NT3) which were purchased from Peprotech. Cells were expanded and frozen into cryovials, and stored in the vapor phase of liquid nitrogen, and thawed immediately before use. Thawed cells were added to a 384-well plate at 7500 cells/well, and allowed to incubate overnight. Compound at various concentrations was added the following morning and allowed to incubate on cells for 1 h. Then, NGF was added at a concentration sufficient to elicit ˜80% of a maximal response and allowed to incubate for 3 h at ambient temperature. DiscoverX PathHunter detection reagent was then added and the plate was further incubated for 1 h in the dark. The plate was then read via luminescence on the Perkin Elmer Envision.
Sequence of human TrkA receptor (P04629 33-796): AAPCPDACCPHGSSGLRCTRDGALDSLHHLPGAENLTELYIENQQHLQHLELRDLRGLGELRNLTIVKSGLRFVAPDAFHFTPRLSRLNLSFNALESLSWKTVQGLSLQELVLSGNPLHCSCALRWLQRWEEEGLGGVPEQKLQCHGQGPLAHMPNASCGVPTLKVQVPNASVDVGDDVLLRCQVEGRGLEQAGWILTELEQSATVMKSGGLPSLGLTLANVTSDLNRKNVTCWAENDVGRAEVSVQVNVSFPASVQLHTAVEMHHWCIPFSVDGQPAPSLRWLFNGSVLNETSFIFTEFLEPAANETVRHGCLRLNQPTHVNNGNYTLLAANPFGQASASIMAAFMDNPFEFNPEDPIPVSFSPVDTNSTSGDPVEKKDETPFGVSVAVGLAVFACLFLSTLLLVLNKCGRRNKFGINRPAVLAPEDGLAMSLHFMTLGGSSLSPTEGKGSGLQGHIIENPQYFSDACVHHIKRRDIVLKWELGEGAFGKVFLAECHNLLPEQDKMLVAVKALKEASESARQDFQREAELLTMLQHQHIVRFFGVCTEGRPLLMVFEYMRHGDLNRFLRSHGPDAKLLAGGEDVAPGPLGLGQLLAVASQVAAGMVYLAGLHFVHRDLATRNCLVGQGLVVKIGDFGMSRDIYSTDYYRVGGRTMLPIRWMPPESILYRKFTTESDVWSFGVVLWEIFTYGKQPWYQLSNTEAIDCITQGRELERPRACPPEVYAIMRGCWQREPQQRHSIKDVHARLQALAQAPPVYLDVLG
As a reminder, the IC50 is the concentration that gives 50% inhibition. High values mean weaker potency in that assay, low ones greater potency in that assay. Molecule `CC(O)c1cnc2c(NC(=O)c3cc(-c4ncccn4)c(C(F)(F)F)cc3F)c(-c3ccc(F)cc3)ccn12` (single isomer, unassigned) [Compound 52, (R) or (S)-2-fluoro-N-[7-(4-fluorophenyl)-3-(1-hydroxyethyl)imidazo[1,2-a]pyridin-8-yl]-5-pyrimidin-2-yl-4-(trifluoromethyl)benzamide] registered an IC50 of 4.9 nM. Turning to `NC(=O)Cc1cnc2c(NC(=O)c3cc(-c4ncccn4)c(C(F)(F)F)cc3F)c(-c3ccccc3)ccn12` [Compound 50, N-(3-(2-Amino-2-oxoethyl)-7-phenylimidazo[1,2-a]pyridin-8-yl)-2-fluoro-5-(pyrimidin-2-yl)-4-(trifluoromethyl)benzamide], the midpoint of inhibition, the IC50, lay at 28 nM. Molecule `Cn1ccc(-c2cc(C(=O)Nc3cn4c(CO)ncc4cc3-c3ccccc3)c(F)cc2C(F)(F)F)n1` [Compound 65, 2-Fluoro-N-(3-(hydroxymethyl)-7-phenylimidazo[1,5-a]pyridin-6-yl)-5-(1-methyl-1H-pyrazol-3-yl)-4-(trifluoromethyl)benzamide] came in with an IC50 of 4.4 nM. With `CC(O)c1cnc2c(NC(=O)c3ccc(C(F)(F)F)c(-c4ccn(C)n4)c3)c(-c3ccccc3)ccn12` (single isomer, unassigned) [Compound 15, (R) or (S)-N-[3-(1-hydroxyethyl)-7-phenylimidazo[1,2-a]pyridin-8-yl]-3-(1-methyl-1H-pyrazol-3-yl)-4-(trifluoromethyl)benzamide], the IC50 was determined as 2.2 nM. For `O=C(Nc1c(-c2ccccc2)ccn2c(CO)cnc12)c1cc(-c2ncccn2)c(C(F)(F)F)cc1F` [Compound 8, 2-Fluoro-N-(3-(hydroxymethyl)-7-phenylimidazo[1,2-a]pyridin-8-yl)-5-(pyrimidin-2-yl)-4-(trifluoromethyl)benzamide], half-maximal inhibition (IC50) was put at 6.2 nM. To `CCOC(=O)c1cnc2c(NC(=O)c3cc(-c4ccn(C)n4)c(C(F)(F)F)s3)c(-c3ccccc3)ccn12` [Compound 66, Ethyl 8-(4-(1-methyl-1H-pyrazol-3-yl)-5-(trifluoromethyl)thiophene-2-carboxamido)-7-phenylimidazo[1,2-a]pyridine-3-carboxylate] belongs 204 nM. In the case of `CC(C)(O)c1cnc2c(NC(=O)c3cc(-c4ncccn4)c(C(F)(F)F)cc3F)c(-c3ccccc3)ncn12` [Compound 73, 2-Fluoro-N-(3-(2-hydroxypropan-2-yl)-7-phenylimidazo[1,2-c]pyrimidin-8-yl)-5-(pyrimidin-2-yl)-4-(trifluoromethyl)benzamide], the IC50 came to 4.8 nM. As for `Cn1ccc(-c2cc(C(=O)Nc3c(-c4ccccc4)ccn4c(CO)cnc34)sc2C(F)(F)F)n1` [Compound 68, N-(3-(Hydroxymethyl)-7-phenylimidazo[1,2-a]pyridin-8-yl)-4-(1-methyl-1H-pyrazol-3-yl)-5-(trifluoromethyl)thiophene-2-carboxamide], it took 48 nM to reach half-maximal inhibition (IC50).

As for `CC(C)(O)c1cnc2c(NC(=O)c3cc(-c4ncccn4)c(C(F)(F)F)cc3F)c(-c3ccc(F)cc3)ccn12` [Compound 54, 2-fluoro-N-[7-(4-fluorophenyl)-3-(1-hydroxy-1-methylethyl)imidazo[1,2-a]pyridin-8-yl]-5-pyrimidin-2-yl-4-(trifluoromethyl)benzamide], it took 58 nM to reach half-maximal inhibition (IC50).

The molecule `O=C(Nc1c(-c2ccc(F)cc2)ccn2c(CO)cnc12)c1cc(-c2ncccn2)c(C(F)(F)F)cc1F` [Compound 51, 2-Fluoro-N-(7-(4-fluorophenyl)-3-(hydroxymethyl)imidazo[1,2-a]pyridin-8-yl)-5-(pyrimidin-2-yl)-4-(trifluoromethyl)benzamide] came in with an IC50 of 60 nM. `CC(O)c1cnc2c(NC(=O)c3cc(-c4ncccn4)c(C(F)(F)F)cc3F)c(-c3ccccc3)ncn12` (racemic) [Compound 71, (R and S)-2-Fluoro-N-(3-(1-hydroxyethyl)-7-phenylimidazo[1,2-c]pyrimidin-8-yl)-5-(pyrimidin-2-yl)-4-(trifluoromethyl)benzamide] came in with an IC50 of 6.6 nM. To `Cn1ccc(-c2cc(C(=O)Nc3c(-c4ccccc4)ccn4cc(C(C)(C)O)nc34)ccc2C(F)(F)F)n1` [Compound 2, N-(2-(2-Hydroxypropan-2-yl)-7-phenylimidazo[1,2-a]pyridin-8-yl)-3-(1-methyl-1H-pyrazol-3-yl)-4-(trifluoromethyl)benzamide] belongs 139 nM. For the molecule `Cc1ccccc1-c1ccn2c(C(N)=O)cnc2c1NC(=O)c1cc(-c2ccn(C)n2)c(C(F)(F)F)cc1F` [Compound 56, 8-(2-Fluoro-5-(1-methyl-1H-pyrazol-3-yl)-4-(trifluoromethyl)benzamido)-7-(o-tolyl)imidazo[1,2-a]pyridine-3-carboxamide], the IC50 amounted to 29 nM. In turn, `CC(O)c1cnc2c(NC(=O)c3cc(-c4cc[nH]n4)c(C(F)(F)F)cc3F)c(-c3ccccc3)ccn12` (single isomer, unassigned) [Compound 27, (R) or (S)-2-fluoro-N-[3-(1-hydroxyethyl)-7-phenylimidazo[1,2-a]pyridin-8-yl]-5-(1H-pyrazol-3-yl)-4-(trifluoromethyl)benzamide] showed an IC50 of 3.5 nM. Against the preceding molecule, the IC50 is about 8.3-fold lower.

On to `Cn1ccc(-c2cc(C(=O)Nc3c(-c4ccccc4)ccn4c(C(C)(C)O)cnc34)ccc2C(F)(F)F)n1` [Compound 32, N-[3-(1-hydroxy-1-methylethyl)-7-phenylimidazo[1,2-a]pyridin-8-yl]-3-(1-methyl-1H-pyrazol-3-yl)-4-(trifluoromethyl)benzamide], for which half-maximal inhibition (IC50) required 6.2 nM. In turn, `Cc1ccccc1-c1ccn2c(C(C)(C)O)cnc2c1NC(=O)c1cc(-c2ncccn2)c(C(F)(F)F)cc1F` [Compound 55, 2-Fluoro-N-(3-(2-hydroxypropan-2-yl)-7-(o-tolyl)imidazo[1,2-a]pyridin-8-yl)-5-(pyrimidin-2-yl)-4-(trifluoromethyl)benzamide] came in with an IC50 of 82 nM. Consider `Cn1ccc(-c2cc(C(=O)Nc3c(-c4ccccc4)ccc4c(C(C)(C)O)cnn34)c(F)cc2C(F)(F)F)n1` [Compound 36, 2-Fluoro-N-(3-(2-hydroxypropan-2-yl)-6-phenylpyrazolo[1,5-a]pyridin-7-yl)-5-(1-methyl-1H-pyrazol-3-yl)-4-(trifluoromethyl)benzamide], for which half-maximal inhibition (IC50) required 0.4 nM. `Cn1ccc(-c2cc(C(=O)Nc3cn4c(CO)ncc4nc3-c3ccccc3)c(F)cc2C(F)(F)F)n1` [Compound 61, 2-Fluoro-N-(6-(hydroxymethyl)-2-phenylimidazo[1,5-a]pyrimidin-3-yl)-5-(1-methyl-1H-pyrazol-3-yl)-4-(trifluoromethyl)benzamide] had an IC50 of 4 nM. Regarding `Cn1ccc(-c2cc(C(=O)Nc3c(-c4ccccc4)ccn4ccnc34)ccc2C(F)(F)F)n1` [Compound 34, 3-(1-Methyl-1H-pyrazol-3-yl)-N-(7-phenylimidazo[1,2-a]pyridin-8-yl)-4-(trifluoromethyl)benzamide], 53 nM corresponded to half-maximal inhibition (IC50).

The molecule `[2H]C([2H])(O)c1cnc2c(NC(=O)c3cc(-c4ncccn4)c(C(F)(F)F)cc3F)c(-c3ccccc3)ccn12` [Compound 35, 2-Fluoro-N-(3-(hydroxymethyl-d2)-7-phenylimidazo[r 12-a]pyridin-8-yl)-5-(pyrimidin-2-yl)-4-(trifluoromethyl)benzamide] gave an IC50 of 4.4 nM.

The molecule `CC(C)(O)c1cnc2c(NC(=O)c3cc(-c4cc[nH]n4)c(C(F)(F)F)cc3F)c(-c3ccccc3)ccn12` [Compound 31, 2-fluoro-N-[3-(1-hydroxy-1-methylethyl)-7-phenylimidazo[1,2-a]pyridin-8-yl]-5-(1H-pyrazol-3-yl)-4-(trifluoromethyl)benzamide] displayed an IC50 of 0.94 nM. The molecule `CC(O)c1nc2c(NC(=O)c3ccc(C(F)(F)F)c(-c4ccn(C)n4)c3)c(-c3ccccc3)ccc2s1` (single isomer, unassigned) [Compound 5, (R and S)—N-(2-(1-Hydroxyethyl)-5-phenylbenzo[d]thiazol-4-yl)-3-(1-methyl-1H-pyrazol-3-yl)-4-(trifluoromethyl)benzamide] returned an IC50 of 13 nM. `[2H]C(C)(O)c1cnc2c(NC(=O)c3cc(-c4ncccn4)c(C(F)(F)F)cc3F)c(-c3ccccc3)ccn12` (single isomer, unassigned) [Compound 74, (R and S)-2-Fluoro-N-(3-(1-hydroxyethyl-1-d)-7-phenylimidazo[1,2-a]pyridin-8-yl)-5-(pyrimidin-2-yl)-4-(trifluoromethyl)benzamide] yielded an IC50 of 4.2 nM. Turning to `Cn1ccc(-c2cc(C(=O)Nc3c(-c4ccccc4)ccc4sc(C(C)(C)O)nc34)ccc2C(F)(F)F)n1` [Compound 4, N-(2-(2-Hydroxypropan-2-yl)-5-phenylbenzo[d]thiazol-4-yl)-3-(1-methyl-1H-pyrazol-3-yl)-4-(trifluoromethyl)benzamide], 67 nM corresponded to half-maximal inhibition (IC50).

With `CC(O)c1cnc2c(NC(=O)c3ccc(C(F)(F)F)c(-c4ccn(C)n4)c3)c(-c3ccccc3)ccn12` (single isomer, unassigned) [Compound 14, (R) or (S)-N-[3-(1-hydroxyethyl)-7-phenylimidazo[1,2-a]pyridin-8-yl]-3-(1-methyl-1H-pyrazol-3-yl)-4-(trifluoromethyl)benzamide], the IC50 amounted to 5.1 nM. This IC50 is about 13-fold lower than that of the molecule before.

In the case of `Cc1ncc2nc(-c3ccccc3)c(NC(=O)c3ccc(C(F)(F)F)c(-c4ccn(C)n4)c3)cn12` [Compound 62, 3-(1-Methyl-1H-pyrazol-3-yl)-N-(6-methyl-2-phenylimidazo[1,5-a]pyrimidin-3-yl)-4-(trifluoromethyl)benzamide], the IC50 amounted to 47 nM.
